pEC50: −log10 of the molar value. Converted amounts (≈) assume the structure as drawn.
Key:
[1] = biological target: human serum albumin (Homo sapiens, UniProt P02768); test: Human serum albumin (HSA) binding, chromatographic; assay type: in vitro ADME
Description: The percentage of compound bound to human serum albumin was measured using a chromatographic method as described. Briefly, each compound was assayed on an immobilized HSA column and gradient retention times measured, with chromatographic peak detection by UV. Each retention time was then converted to a % HSA bound value using a calibration set of compounds with a known % HSA binding.

[2] = Artificial membrane permeability (AMP); assay type: in vitro ADME; details: PAMPA, pH 7.4
Description: Passive permeability of compounds via rate of permeation through an artificial phospholipid membrane at pH 7.4 was measured in a high-throughput format, in duplicate. A solution of 1.8% phosphatidylcholine in 1% decane was added to a 96-well Millicell filter plate along with 250 μL of 50 mM phosphate buffer, pH 7.4 on the donor side, and 100 μL of the same buffer solution on the receiver side. The assay plate was shaken for 45 minutes before adding test compounds. Test compounds were then added to the filter plate and then incubated at room temperature with shaking for three hours. The donor and receiver solutions were next transferred to a 384-well plate for analysis by LC/MS.

[3] = system: HepG2 cells; test: HepG2 cytotoxicity; assay type: cell-based; details: Homo sapiens; toxicity against HepG2 cells
Description: Given the literature precedents described above and the apparent narrow tolerance for R^3 substitutions observed in the primary screen compounds, a thorough and methodical assessment was undertaken of tolerated groups at the three points of diversity (R^1/R^2/R^3) for the core. At this stage of the project, all analogues were assessed using a battery of assays performed in-house at GlaxoSmithKline. For antileishmanial activity, GSK's inMac assay was utilized. This assay provides two readouts of compound potency: average number of intracellular amastigotes per infected cell (AMMAC) EC50, percentage of infected cells per well (INFCELL) EC50, as well as a toxicity output derived from the number of host cells (MAC EC50). In addition, compounds were assessed for toxicity against HepG2 cells (HEPG2 EC50). Here, AMMAC EC50 values were focused on for relative potency assessments. […] It should be noted that for all compounds assessed in this project, the measured toxicity against THP-1 macrophages either equaled or exceeded that of HepG2 hepatocytes, therefore the MAC SI is used here as the more conservative estimate of therapeutic index.

[4] = system: L. donovani intracellular amastigotes infecting THP-1 macrophages; test: GSK intramacrophage L. donovani assay (LD AMMAC, inMac; Assay Conditions C); assay type: cell-based; details: Leishmania donovani; growth inhibition of L. donovani intracellular amastigotes infecting THP-1 macrophages; read-out: LD AMMAC EC50
Outline: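 L. donovani amastigotes within THP-1 macrophages; EC50 based on average intracellular amastigotes per infected cell (AMMAC). Infected-cell percentage (INFCELL) and host-cell number (MAC) also read, the latter as toxicity output.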

[5] = Property forecast index (PFI = ChromLogD7.4 + aromatic rings); assay type: physicochemical
Description: At the outset of the project, compound 1 was evaluated against GSK's established criteria for antileishmanial compound advancement (Table 2). Some of these assessments were performed on racemic 1, while chiral separation was also pursued of the 1 racemate to determine the active enantiomer. […] Based on this promising profile, it progressed into medicinal chemistry optimization to better understand structure-activity relationships (SAR) toward improved potency, as well as structure-property relationships (SPR) with an eye toward reducing PFI and plasma protein binding.

[6] = Kinetic aqueous solubility by CLND; assay type: physicochemical; details: kinetic from dmso stock, high-throughput CLND
Description: Solubility of compounds using ChemiLuminescent Nitrogen Detection (CLND) was measured as described. Solubility of compounds using Charged Aerosol Detection (CAD) was measured as described. Solubility of solid compounds in Fasted Simulated Intestinal Fluid (FaSSIF) was measured as described.

[7] = system: host THP-1 macrophages; test: GSK inMac assay, host cell toxicity readout (LD MAC); assay type: cell-based, human; details: Homo sapiens, THP-1, cytotoxicity against host THP-1 macrophages
Outline: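 Intramacrophage L. donovani assay in THP-1 macrophages; host toxicity taken from host cell number per well, giving MAC EC50. Run alongside amastigote-per-cell and infected-cell readouts in the same wells.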

[8] = aqueous medium (not further specified)

human serum albumin, sequence (P02768 25-609): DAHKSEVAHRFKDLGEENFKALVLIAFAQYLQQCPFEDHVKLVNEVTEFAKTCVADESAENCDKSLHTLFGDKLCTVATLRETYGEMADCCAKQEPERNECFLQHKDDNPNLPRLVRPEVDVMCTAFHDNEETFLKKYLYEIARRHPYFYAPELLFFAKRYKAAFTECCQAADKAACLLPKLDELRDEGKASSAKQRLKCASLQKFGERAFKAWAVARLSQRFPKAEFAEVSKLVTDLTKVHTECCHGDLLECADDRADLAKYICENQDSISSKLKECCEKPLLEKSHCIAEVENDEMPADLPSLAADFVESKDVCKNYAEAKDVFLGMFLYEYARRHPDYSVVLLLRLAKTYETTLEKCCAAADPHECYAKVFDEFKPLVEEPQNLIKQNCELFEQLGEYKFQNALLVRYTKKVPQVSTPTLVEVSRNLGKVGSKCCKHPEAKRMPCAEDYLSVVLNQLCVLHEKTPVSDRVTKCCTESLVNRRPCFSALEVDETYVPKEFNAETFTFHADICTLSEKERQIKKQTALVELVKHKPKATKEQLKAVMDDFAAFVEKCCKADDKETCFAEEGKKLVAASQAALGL

Compound | HSA Binding [1] [%] | Papp at 3 h [2] [×10⁻⁶ cm/s] | pEC50 [3] | pEC50 [4] | PFI [5] | solubility [6, 8] [µM] | pEC50 [7] | solubility ([6]; aqueous medium) [µM]
CC(C)Cc1n[nH]c2c1C(c1ccc(F)cc1)N(c1ccccn1)C2=O (stereo not shown) [Compound 33] | 96.6 | 20 | < 4.00 | 4.70 | 8.5 | 219 (≈ 76.7 µg/mL) | < 4.30 | –
COc1ccc(CN2C(=O)c3[nH]nc(CC(C)C)c3C2c2ccc(F)cc2)cc1 (stereo not shown) [Compound 34] | 98.2 | 55 | 4.30 | 4.90 | 9.0 | 45 (≈ 17.7 µg/mL) | 4.50 | –
Cc1ccc(CN2C(=O)c3[nH]nc(CC(C)C)c3C2c2ccc(F)cc2)o1 (stereo not shown) [Compound 35] | 97.2 | 37 | 4.30 | 4.80 | 8.9 | 19 (≈ 6.98 µg/mL) | 4.40 | –
COC1CCC(N2C(=O)c3[nH]nc(CC(C)C)c3C2c2ccc(F)cc2)CC1 (stereo not shown) [Compound 36] | 92.1 | 57 | < 4.00 | 4.60 | 7.3 | ≥ 450 | < 4.30 | –
CC(C)Cc1n[nH]c2c1C(c1ccc(F)cc1)N(C1CCC(N(C)C)CC1)C2=O (stereo not shown) [Compound 37] | 81.1 | 13 | < 4.00 | 4.60 | 4.6 | ≥ 446 | < 4.30 | –
CC(C)Cc1n[nH]c2c1C(c1ccc(F)cc1)N(C1CCOCC1)C2=O (stereo not shown) [Compound 38] | 90.2 | 49 | < 4.00 | 4.50 | 6.5 | ≥ 381 | < 4.30 | –
CC(C)Cc1n[nH]c2c1C(c1ccc(F)cc1)N(CC1CCN(C)C1)C2=O (stereo not shown) [Compound 40] | 77.5 | < 1 | < 4.00 | < 4.30 | 4.8 | ≥ 351 | < 4.30 | –
COCCN1C(=O)c2[nH]nc(CC(C)C)c2C1c1ccc(F)cc1 (stereo not shown) [Compound 41] | 90.2 | 52 | < 4.00 | < 4.30 | 6.7 | ≥ 421 | < 4.30 | –
COc1ccc(N2C(=O)c3[nH]nc(CC(C)C)c3C2c2ccc(F)cc2)c(OC)c1 (stereo not shown) [Compound 43] | 96.2 | 17 | 4.20 | 4.70 | 8.5 | – | 4.50 | 138 (≈ 56.5 µg/mL)
COc1ccc(N2C(=O)c3[nH]nc(CC(C)C)c3C2c2ccc(Cl)cc2)cc1 (stereo not shown) [Compound 47] | 96.9 | 33 | 4.30 | 5.40 | 9.2 | 22 (≈ 8.71 µg/mL) | 4.80 | –
COc1ccc(N2C(=O)c3[nH]nc(CC(C)C)c3C2c2ccc(Br)cc2)cc1 (stereo not shown) [Compound 48] | 97.2 | 42 | 4.30 | 5.20 | 9.3 | 9 (≈ 3.96 µg/mL) | 4.80 | –
COc1ccc(N2C(=O)c3[nH]nc(CC(C)C)c3C2c2ccc(C(F)(F)F)cc2)cc1 (stereo not shown) [Compound 49] | 96.9 | 21 | 4.30 | 5.10 | 9.3 | 12 (≈ 5.15 µg/mL) | 4.80 | –
COc1ccc(N2C(=O)c3[nH]nc(CC(C)C)c3C2c2ccc(C(=O)O)cc2)cc1 (stereo not shown) [Compound 50] | 90.7 | < 0.3 | < 4.00 | < 4.30 | 4.5 | ≥ 470 | < 4.30 | –
COC(=O)c1ccc(C2c3c(CC(C)C)n[nH]c3C(=O)N2c2ccc(OC)cc2)cc1 (stereo not shown) [Compound 51] | 95 | 38 | 4.20 | 4.60 | 8.2 | 44 (≈ 18.5 µg/mL) | 4.40 | –
COc1ccc(N2C(=O)c3[nH]nc(CC(C)C)c3C2C2CCCCC2)cc1 (stereo not shown) [Compound 52] | 97.6 | 33 | 4.30 | 5.10 | 8.5 | 29 (≈ 10.7 µg/mL) | 4.60 | –
COc1ccc(N2C(=O)c3[nH]nc(CC(C)C)c3C2C2CCCC2)cc1 (stereo not shown) [Compound 53] | 96.3 | 59 | < 4.00 | 4.90 | 8.1 | 119 (≈ 42.1 µg/mL) | 4.70 | –
COc1ccc(N2C(=O)c3[nH]nc(CC(C)C)c3C2c2ccccc2F)cc1 (stereo not shown) [Compound 54] | 97.3 | 23 | 4.50 | 5.49 | 8.6 | 75 (≈ 28.5 µg/mL) | 4.50 | –
COc1ccc(N2C(=O)c3[nH]nc(CC(C)C)c3C2c2ccccc2Br)cc1 (stereo not shown) [Compound 56] | 97.1 | 30 | 4.40 | 6.30 | 9.2 | 12 (≈ 5.28 µg/mL) | 4.60 | –
COc1ccc(N2C(=O)c3[nH]nc(CC(C)C)c3C2c2ccccc2OC)cc1 (stereo not shown) [Compound 57, 3-isobutyl-4-(2-methoxyphenyl)-5-(4-methoxyphenyl)-4,5-dihydropyrrolo[3,4-c]pyrazol-6(1H)-one] | 95.7 | 35 | 5.20 | 6.30 | 8.6 | 57 (≈ 22.3 µg/mL) | 4.60 | –
COc1ccc(N2C(=O)c3[nH]nc(CC(C)C)c3C2c2cccc(F)c2)cc1 (stereo not shown) [Compound 58] | 96.9 | 37 | 4.30 | 5.30 | 8.3 | 91 (≈ 34.5 µg/mL) | 4.90 | –
COc1ccc(N2C(=O)c3[nH]nc(CC(C)C)c3C2c2cccc(Cl)c2)cc1 (stereo not shown) [Compound 59] | 96.8 | 28 | 4.40 | 5.10 | 9.0 | 19 (≈ 7.52 µg/mL) | 4.40 | –
COc1ccc(N2C(=O)c3[nH]nc(CC(C)C)c3C2c2cccc(Br)c2)cc1 (stereo not shown) [Compound 60] | 97 | 37 | 4.40 | 5.10 | 9.1 | 10 (≈ 4.4 µg/mL) | 4.60 | –
COc1ccc(N2C(=O)c3[nH]nc(CC(C)C)c3C2c2cccc(OC)c2)cc1 (stereo not shown) [Compound 61] | 95 | 29 | 4.20 | 5.40 | 8.4 | 63 (≈ 24.7 µg/mL) | 4.70 | –
COc1ccc(N2C(=O)c3[nH]nc(CC(C)C)c3C2c2cccc(C(F)(F)F)c2)cc1 (stereo not shown) [Compound 62] | 97.8 | 22 | 4.30 | 5.20 | 8.9 | 20 (≈ 8.59 µg/mL) | 4.80 | –
COc1ccc(N2C(=O)c3[nH]nc(CC(C)C)c3C2c2ccc(F)cc2F)cc1 (stereo not shown) [Compound 63] | 96.1 | 14 | 4.20 | 5.70 | 8.8 | 52 (≈ 20.7 µg/mL) | 4.60 | –

— patent US20230381142A1, “ANTILEISHMANIAL COMPOUNDS, COMPOSITIONS AND USE THEREOF” (TRUSTEES OF BOSTON UNIVERSITY, priority 2022, published 2023)
